Results published in ChEMBL document CHEMBL5614419, “Discovery of novel BCL6-Targeting PROTACs with effective antitumor activities against DLBCL in vitro and in vivo” (Eur J Med Chem, 2024).
Calls of active or inactive are those of the source. The rule behind the calls is not given here.

What was measured:
[1] = biological target: T1, Protein cereblon/B-cell lymphoma 6 protein (Homo sapiens, UniProt Q96SW2+P41182); experiment: PROTAC activity at CRBN/BCL6 in human SU-DHL-4 cells assessed as induction of BCL6 degradation by measuring maximal efficacy incubated for 48 hrs by Western blot analysis relative to control; type: cell-based
[2] = test system: SUD4; experiment: Induction of cell cycle arrest in human SU-DHL-4 cells assessed as increase in G1 phase cell population at 1 uM measured after 72 hrs by flow cytometry analysis (reference value: 61.4%); type: functional
[3] = Antitumor activity against human SU-DHL-4 cells xenografted in female nude nu/nu mouse assessed as tumor growth inhibition at 10 mg/kg, ip measured after 21 days by microcaliper based analysis relative to control; type: functional, SUD4; conditions: SU-DHL-4, 504 h, time 21 day, read-out: TGI
[4] = test system: SUD4; experiment: Effect on BCL6 mRNA level in human SU-DHL-4 cells at 10 uM incubated for 48 hrs by RT-qPCR analysis; type: functional, cell-based
[5] = test system: WI-38 VA13; experiment: (§1) Cytotoxicity against human WI-38 VA13 cells assessed as inhibition in cell growth measured after 6 days by MTT assay; type: toxicity, cell-based; conditions: wi-38 va13, 144 h, time 6 day
[6] = as §1; type: toxicity, cell-based; conditions: WI-38 VA13 cells
[7] = test system: SUD4; experiment: Induction of cell cycle arrest in human SU-DHL-4 cells assessed as G1 phase arrest at 500 nM in presence of Ibrutinib incubated for 72 hrs by flow cytometry; type: functional, cell-based
[8] = biological target: T1, Protein cereblon/B-cell lymphoma 6 protein; experiment: PROTAC activity at CRBN/BCL6 in human SU-DHL-4 cells assessed as induction of BCL6 degradation by measuring reduction in protein level at 5 uM measured upto 72 hrs by Western blot analysis; type: cell-based
[9] = test system: Ibrutinib resistant DOHH2 cell; experiment: Upregulation of p27 protein level in human Ibrutinib resistant DOHH2 cells at 0.1 to 10 uM incubated for 48 hrs by Western blot analysis; type: functional, cell-based; conditions: dose 0.1-10 µM
[10] = test system: SUD4; experiment: Upregulation of p27 protein level in human SU-DHL-4 cells incubated for 48 hrs by Western blot analysis; type: functional, cell-based; conditions: dose 0.1-10 µM
[11] = Cmax in male Sprague-Dawley rat at 10 mg/kg, ip measured upto 24 hrs by LC-MS/MS analysis; type: ADME, organism-based; conditions: in vivo
[12] = Tmax in male Sprague-Dawley rat at 20 mg/kg, po measured upto 24 hrs by LC-MS/MS analysis; type: ADME, organism-based; conditions: in vivo
[13] = Antitumor activity against human SU-DHL-4 cells xenografted in female nude nu/nu mouse assessed as tumor growth inhibition at 20 mg/kg, ip measured after 21 days by microcaliper based analysis relative to control; type: functional, SUD4; conditions: SU-DHL-4, 504 h, time 21 day, read-out: TGI
[14] = biological target: T1, Protein cereblon/B-cell lymphoma 6 protein; experiment: PROTAC activity at CRBN/BCL6 in human Ibrutinib resistant DOHH2 cells assessed as induction of BCL6 degradation at 0.1 to 10 uM incubated for 48 hrs by Western blot analysis; type: cell-based; conditions: dose 0.1-10 µM
[15] = biological target: T1, Protein cereblon/B-cell lymphoma 6 protein; experiment: PROTAC activity at CRBN/BCL6 in BCL6-dependent human SU-DHL-4 cells assessed as induction of BCL6 degradation by measuring degradation rate at 10 uM incubated for 48 hrs by Western blot analysis relative to control; type: cell-based
[16] = biological target: T1, Protein cereblon/B-cell lymphoma 6 protein; experiment: PROTAC activity at CRBN/BCL6 in human DOHH-2 cells assessed as induction of BCL6 degradation by measuring maximal efficacy incubated for 48 hrs by Western blot analysis relative to control; type: cell-based
[17] = AUC (0 to t) in male Sprague-Dawley rat at 20 mg/kg, po measured upto 24 hrs by LC-MS/MS analysis; type: ADME, organism-based; conditions: in vivo
[18] = Cmax in male Sprague-Dawley rat at 20 mg/kg, po measured upto 24 hrs by LC-MS/MS analysis; type: ADME, organism-based; conditions: in vivo
[19] = test system: OCI-Ly1; experiment: Antiproliferative activity against BCL6-dependent human OCI-Ly1 cells assessed as inhibition in cell growth measured after 6 days by MTT assay; conditions: OCI-Ly1, 144 h
[20] = biological target: T1, Protein cereblon/B-cell lymphoma 6 protein; experiment: PROTAC activity at CRBN/BCL6 in human SU-DHL-4 cells assessed as induction of BCL6 degradation at 5 uM preincubated with MG-132 for 2 hrs followed by compound addition and measured after 36 hrs by Western blot analysis; type: cell-based
[21] = test system: SUD4; experiment: Synergistic antiproliferative activity against human SU-DHL-4 cells assessed as combination index measured after 6 days in presence of Ibrutinib by MTT assay; type: functional; conditions: time 6 day
[22] = test system: SUD4; experiment: Upregulation of p21 protein level in human SU-DHL-4 cells at 5 uM preincubated for 48 hrs followed by compound elution and measured after 72 hrs by Western blot analysis; type: functional, cell-based
[23] = test system: SUD4; experiment: Upregulation of CDKN1B mRNA level in human SU-DHL-4 cells at 10 uM incubated for 48 hrs by RT-qPCR analysis; type: functional, cell-based

T1 sequence (Q96SW2 whole entry, looked up, other chains not shown): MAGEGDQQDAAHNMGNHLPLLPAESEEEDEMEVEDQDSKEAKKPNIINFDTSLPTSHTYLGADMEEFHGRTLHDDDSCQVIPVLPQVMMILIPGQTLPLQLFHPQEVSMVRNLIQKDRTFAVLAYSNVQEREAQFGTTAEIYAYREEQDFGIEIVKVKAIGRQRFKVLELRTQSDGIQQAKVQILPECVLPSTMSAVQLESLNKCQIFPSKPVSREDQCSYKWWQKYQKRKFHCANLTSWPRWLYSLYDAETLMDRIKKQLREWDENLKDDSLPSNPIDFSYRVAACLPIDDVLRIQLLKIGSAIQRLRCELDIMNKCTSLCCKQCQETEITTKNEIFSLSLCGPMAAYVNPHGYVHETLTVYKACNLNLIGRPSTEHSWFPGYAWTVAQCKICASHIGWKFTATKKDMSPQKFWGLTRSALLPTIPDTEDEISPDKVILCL

In the case of `COc1cc(Nc2nc(N3CCN(CCOCCNc4cccc5c4C(=O)N(C4CCC(=O)NC4=O)C5=O)CC3)ncc2F)ccc1NC(=O)c1ccc(C2=CCCC2)s1` (stereo not drawn), the Emax [1] is reported as 93%, the Activity [2] is reported as 86.7% and the inhibition in vivo at 10 mg/kg [3] is reported as 22.2%. The Activity [4] was “inactive”, the Activity [5] was “Dose-Dependent Effect” and the IC50 at 6 days [6] was greater than 10 µM. For the same molecule, the Activity [7] was “Active”, the Activity [8] was “Active” and the Activity [9] was “Active”. For the same molecule, the Activity [10] was “Dose-Dependent Effect”, the Cmax [11] was 3820 ng/mL and the Tmax [12] was 1 h. For the same molecule, the inhibition in vivo at 20 mg/kg [13] was 47.4%, the Activity [14] was “Active” and the Activity [15] was 94.4%. The Emax [16] was 93.7%, the AUC(0-t) at 24 h [17] was 2290 ng·h/mL and the Cmax [18] was 703 ng/mL. For the same molecule, the IC50 [19] was 1370 nM, the Activity [20] was “inactive” and the CI [21] was 0.5. For the same molecule, the Activity [22] was “Active” and the Activity [23] was “Active”.
